According to US20250230193A1, “CYCLIC COMPOUND HAVING SELECTIVE KRAS INHIBITORY EFFECT ON HRAS AND NRAS” (CHUGAI SEIYAKU KABUSHIKI KAISHA, priority 2022, published 2025):

Experiments:
[1] = biological target: GDP-bound NRAS wild-type protein (Homo sapiens, UniProt P01111); assay: Binding to NRAS by surface plasmon resonance (SPR), Single Cycle Kinetics; details: KD ratio, GDP-bound NRAS wild-type vs GDP-bound KRAS wild-type, SPR
[2] = biological target: GDP-bound HRAS wild-type protein (Homo sapiens, UniProt P01112); assay: Binding to HRAS by surface plasmon resonance (SPR), Single Cycle Kinetics; details: KD ratio, GDP-bound HRAS wild-type vs GDP-bound KRAS wild-type, SPR
Chain of GDP-bound HRAS wild-type protein (P01112 whole entry): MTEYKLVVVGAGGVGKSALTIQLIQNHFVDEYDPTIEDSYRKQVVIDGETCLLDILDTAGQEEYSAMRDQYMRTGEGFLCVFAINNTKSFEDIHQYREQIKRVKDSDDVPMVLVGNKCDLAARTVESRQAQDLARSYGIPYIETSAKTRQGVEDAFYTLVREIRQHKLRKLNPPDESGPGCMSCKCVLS

Chain of GDP-bound NRAS wild-type protein (P01111 whole entry): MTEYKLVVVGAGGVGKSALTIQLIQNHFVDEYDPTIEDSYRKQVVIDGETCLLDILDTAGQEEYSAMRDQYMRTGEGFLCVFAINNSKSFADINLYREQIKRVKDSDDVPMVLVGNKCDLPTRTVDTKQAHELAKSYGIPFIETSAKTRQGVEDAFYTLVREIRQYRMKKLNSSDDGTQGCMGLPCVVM

Row | Compound | NRAS/KRAS (ratio of KD value for NRAS to KD value for KRAS) [1] | HRAS/KRAS (ratio of KD value for HRAS to KD value for KRAS) [2]
1 | CCCN(C)C(=O)[C@@H]1CC(=O)N(C)[C@@H](CC(F)F)C(=O)N[C@@H]([C@@H](C)CC)C(=O)N(C)CC(=O)N(C)[C@H]2C/C=C\CCN(C2=O)[C@@H](Cc2ccc(C(F)(F)F)cc2)C(=O)N(C)CC(=O)N[C@@H](CCc2ccc(C(F)(F)F)c(OC)c2)C(=O)N2C[C@@H](C)C[C@H]2C(=O)NC2(CC(C)(C)C2)C(=O)N(C)[C@@H](C2CCCC2)C(=O)N1C [PP1989] | A (a compound having 10 or more and less than 20 is denoted as A) | A (a compound having 10 or more and less than 20 is denoted as A)
2 | CCO[C@@H]1C[C@H]2C(=O)NC3(CCC3)C(=O)N(C)[C@@H](C3CCCC3)C(=O)N(C)[C@H](C(=O)N(C)CC)CC(=O)N(C)[C@@H](C(C)C)C(=O)N[C@@H]([C@@H](C)CC)C(=O)N(C)CC(=O)N(C)[C@H]3C/C=C\CCN(C3=O)[C@@H](Cc3ccc(C(F)(F)F)cc3)C(=O)N(C)CC(=O)N[C@@H](CCc3cc(F)c(C(F)(F)F)c(F)c3)C(=O)N2C1 [PP1990] | A (a compound having 10 or more and less than 20 is denoted as A) | A (a compound having 10 or more and less than 20 is denoted as A)
3 | CCCN(C)C(=O)[C@@H]1CC(=O)N(C)[C@@H](COCC)C(=O)N[C@@H]([C@@H](C)CC)C(=O)N(C)CC(=O)N(C)[C@H]2C/C=C\CCN(C2=O)[C@@H](Cc2ccc(C(F)(F)F)cc2)C(=O)N(C)CC(=O)N[C@@H](CCc2ccc(C(F)(F)F)c(OC)c2)C(=O)N2C[C@@H](C)C[C@H]2C(=O)NC2(CC(C)(C)C2)C(=O)N(C)[C@@H](C2CCCC2)C(=O)N1C [PP1991] | A (a compound having 10 or more and less than 20 is denoted as A) | A (a compound having 10 or more and less than 20 is denoted as A)
4 | CCCN(C)C(=O)[C@@H]1CC(=O)N(C)[C@@H](C(C)C)C(=O)N[C@@H]([C@@H](C)CC)C(=O)N(C)CC(=O)N(C)[C@H]2C/C=C\CCN(C2=O)[C@@H](Cc2ccc(C(F)(F)F)cc2)C(=O)N(C)CC(=O)N[C@@H](CCc2cc(F)c(C(F)(F)F)c(F)c2)C(=O)N2C[C@H](OCC)C[C@H]2C(=O)NC2(CCC2)C(=O)N(C)[C@@H](C2CCCC2)C(=O)N1C [PP1992] | AA (a compound having 20 or more is denoted as AA) | B (a compound having 3 or more and less than 10 is denoted as B)
5 | CCOC[C@H]1C(=O)N[C@@H]([C@@H](C)CC)C(=O)N(C)CC(=O)N(C)[C@H]2C/C=C\CCN(C2=O)[C@@H](Cc2ccc(C(F)(F)F)cc2)C(=O)N(C)CC(=O)N[C@@H](CCc2ccc(C(F)(F)F)c(OC)c2)C(=O)N2C[C@@H](C)C[C@H]2C(=O)NC2(CC(C)(C)C2)C(=O)N(C)[C@@H](C2CCCC2)C(=O)N(C)[C@H](C(=O)N(C)CC)CC(=O)N1C [PP1993] | A (a compound having 10 or more and less than 20 is denoted as A) | A (a compound having 10 or more and less than 20 is denoted as A)
6 | CCCN(C)C(=O)[C@@H]1CC(=O)N(C)[C@@H](C2CC2)C(=O)N[C@@H]([C@@H](C)CC)C(=O)N(C)CC(=O)N(C)[C@H]2C/C=C\CCN(C2=O)[C@@H](Cc2ccc(C(F)(F)F)cc2)C(=O)N(C)CC(=O)N[C@@H](CCc2cc(F)c(C(F)(F)F)c(F)c2)C(=O)N2C[C@H](OCC)C[C@H]2C(=O)NC2(CCC2)C(=O)N(C)[C@@H](C2CCCC2)C(=O)N1C [PP1994] | AA (a compound having 20 or more is denoted as AA) | A (a compound having 10 or more and less than 20 is denoted as A)
7 | CCCOC[C@H]1C(=O)N[C@@H]([C@@H](C)CC)C(=O)N(C)CC(=O)N(C)[C@H]2C/C=C\CCN(C2=O)[C@@H](Cc2ccc(C(F)(F)F)cc2)C(=O)N(C)CC(=O)N[C@@H](CCc2ccc(C(F)(F)F)c(OC)c2)C(=O)N2C[C@@H](C)C[C@H]2C(=O)NC2(CC(C)(C)C2)C(=O)N(C)[C@@H](C2CCCC2)C(=O)N(C)[C@H](C(=O)N(C)CC)CC(=O)N1C [PP1995] | A (a compound having 10 or more and less than 20 is denoted as A) | B (a compound having 3 or more and less than 10 is denoted as B)
8 | CCO[C@@H]1C[C@H]2C(=O)NC3(CCC3)C(=O)N(C)[C@@H](C3CCCC3)C(=O)N(C)[C@H](C(=O)N(C)CC)CC(=O)N(C)[C@@H](C3CCC3)C(=O)N[C@@H]([C@@H](C)CC)C(=O)N(C)CC(=O)N(C)[C@H]3C/C=C\CCN(C3=O)[C@@H](Cc3ccc(C(F)(F)F)cc3)C(=O)N(C)CC(=O)N[C@@H](CCc3cc(F)c(C(F)(F)F)c(F)c3)C(=O)N2C1 [PP1996] | A (a compound having 10 or more and less than 20 is denoted as A) | B (a compound having 3 or more and less than 10 is denoted as B)
9 | CCCOC[C@H]1C(=O)N[C@@H]([C@@H](C)CC)C(=O)N(C)CC(=O)N(C)[C@H]2C/C=C\CCN(C2=O)[C@@H](Cc2ccc(C(F)(F)F)cc2)C(=O)N(C)CC(=O)N[C@@H](CCc2ccc(C(F)(F)F)c(OC)c2)C(=O)N2C[C@@H](C)C[C@H]2C(=O)NC2(CC(C)(C)C2)C(=O)N(C)[C@@H](C2CCCC2)C(=O)N(C)[C@H](C(=O)N(C)C)CC(=O)N1C [PP1997] | A (a compound having 10 or more and less than 20 is denoted as A) | B (a compound having 3 or more and less than 10 is denoted as B)
10 | CCCN(C)C(=O)[C@@H]1CC(=O)N(C)[C@@H](C2CCC2)C(=O)N[C@@H]([C@@H](C)CC)C(=O)N(C)CC(=O)N(C)[C@H]2C/C=C\CCN(C2=O)[C@@H](Cc2ccc(C(F)(F)F)cc2)C(=O)N(C)CC(=O)N[C@@H](CCc2cc(F)c(C(F)(F)F)c(F)c2)C(=O)N2C[C@H](OCC)C[C@H]2C(=O)NC2(CCC2)C(=O)N(C)[C@@H](C2CCCC2)C(=O)N1C [PP1998] | A (a compound having 10 or more and less than 20 is denoted as A) | B (a compound having 3 or more and less than 10 is denoted as B)
11 | CC[C@H](C)[C@@H]1NC(=O)[C@H](CCOC)N(C)C(=O)C[C@@H](C(=O)N(C)CC)N(C)C(=O)[C@H](C2CCCC2)N(C)C(=O)C2(CC(C)(C)C2)NC(=O)[C@@H]2C[C@H](C)CN2C(=O)[C@H](CCc2ccc(C(F)(F)F)c(OC)c2)NC(=O)CN(C)C(=O)[C@H](Cc2ccc(C(F)(F)F)cc2)N2CC/C=C\C[C@@H](C2=O)N(C)C(=O)CN(C)C1=O [PP1999] | A (a compound having 10 or more and less than 20 is denoted as A) | B (a compound having 3 or more and less than 10 is denoted as B)
12 | CCCN(C)C(=O)[C@@H]1CC(=O)N(C)[C@@H](CC(F)F)C(=O)N[C@@H]([C@@H](C)CC)C(=O)N(C)CC(=O)N(C)[C@H]2C/C=C\CCN(C2=O)[C@@H](Cc2ccc(C(F)(F)F)cc2)C(=O)N(C)CC(=O)N[C@@H](CCc2cc(F)c(C(F)(F)F)c(F)c2)C(=O)N2C[C@@H](C)C[C@H]2C(=O)NC2(CCC2)C(=O)N(C)[C@@H](C2CCCC2)C(=O)N1C [PP2000] | A (a compound having 10 or more and less than 20 is denoted as A) | B (a compound having 3 or more and less than 10 is denoted as B)
13 | CCCN(C)C(=O)[C@@H]1CC(=O)N(C)[C@@H](CCOC)C(=O)N[C@@H]([C@@H](C)CC)C(=O)N(C)CC(=O)N(C)[C@H]2C/C=C\CCN(C2=O)[C@@H](Cc2ccc(C(F)(F)F)cc2)C(=O)N(C)CC(=O)N[C@@H](CCc2ccc(C(F)(F)F)c(OC)c2)C(=O)N2C[C@@H](C)C[C@H]2C(=O)NC2(CC(C)(C)C2)C(=O)N(C)[C@@H](C2CCCC2)C(=O)N1C [PP2001] | A (a compound having 10 or more and less than 20 is denoted as A) | A (a compound having 10 or more and less than 20 is denoted as A)
14 | CC[C@H](C)[C@@H]1NC(=O)[C@H](C(C)C)N(C)C(=O)C[C@@H](C(=O)N(C)CC)N(C)C(=O)[C@H](C2CCCC2)N(C)C(=O)C2(CC(C)(C)C2)NC(=O)[C@@H]2C[C@H](C)CN2C(=O)[C@H](CCc2ccc(C(F)(F)F)c(OC)c2)NC(=O)CN(C)C(=O)[C@H](Cc2ccc(C(F)(F)F)cc2)N2CC/C=C\C[C@@H](C2=O)N(C)C(=O)CN(C)C1=O [PP2003] | A (a compound having 10 or more and less than 20 is denoted as A) | B (a compound having 3 or more and less than 10 is denoted as B)
15 | CC[C@H](C)[C@@H]1NC(=O)[C@H](C(C)C)N(C)C(=O)C[C@@H](C(=O)N(C)C)N(C)C(=O)[C@H](C2CCCC2)N(C)C(=O)C2(CC(C)(C)C2)NC(=O)[C@@H]2C[C@H](C)CN2C(=O)[C@H](CCc2ccc(C(F)(F)F)c(OC)c2)NC(=O)CN(C)C(=O)[C@H](Cc2ccc(C(F)(F)F)cc2)N2CC/C=C\C[C@@H](C2=O)N(C)C(=O)CN(C)C1=O [PP2005] | A (a compound having 10 or more and less than 20 is denoted as A) | A (a compound having 10 or more and less than 20 is denoted as A)
16 | CC[C@H](C)[C@@H]1NC(=O)[C@H](C2CC2)N(C)C(=O)C[C@@H](C(=O)N(C)CC)N(C)C(=O)[C@H](C2CCCC2)N(C)C(=O)C2(CC(C)(C)C2)NC(=O)[C@@H]2C[C@H](C)CN2C(=O)[C@H](CCc2ccc(C(F)(F)F)c(OC)c2)NC(=O)CN(C)C(=O)[C@H](Cc2ccc(C(F)(F)F)cc2)N2CC/C=C\C[C@@H](C2=O)N(C)C(=O)CN(C)C1=O [PP2007] | AA (a compound having 20 or more is denoted as AA) | B (a compound having 3 or more and less than 10 is denoted as B)
